These results are taken from ChEMBL document CHEMBL1828514, “Comparison of the reactivity of antimalarial 1,2,4,5-tetraoxanes with 1,2,4-trioxolanes in the presence of ferrous iron salts, heme, and ferrous iron salts/phosphatidylcholine” (J Med Chem, 2011).

Data set [1] can be described thus: Induction of 2-Linoleoyl-1-palmitoyl-sn-phosphotidylcholine peroxidation in the presence of ferrous sulphate after 24 hrs by ESI/MS analysis. The format is functional.
Data set [2] is described as follows: Induction of oxyl radical formation from reaction with ferrous heme assessed as decrease in heme concentration by HPLC analysis relative to control. It is filed as physicochemical. Also on record: scale not given: the % may be the effect or the level left.
Data set [3] can be described thus: Chemical stability of the compound assessed as iron-mediated decomposition after 24 hrs by LC/MS analysis. It is filed as physicochemical.
The nature of data set [4]: Induction of 2-Linoleoyl-1-palmitoyl-sn-phosphotidylcholine peroxidation in the presence of Ferrous sulphate after 24 hrs by LC/MS analysis. The format is functional.
The test system of a further data set is Plasmodium falciparum. Kind of data set: Antimalarial activity against Plasmodium falciparum 3D7 assessed as inhibition of [3H]hypoxanthine incorporation after 48 hrs by liquid scintillation counting. It is filed as functional, organism-based.
Data set [5] can be described thus: Induction of alkylated heme adduct formation from reaction with ferrous heme by LC/MS analysis.
Data set [6] in a line: Induction of oxyl radical formation from reaction with ferrous salt in the presence of 2,2,6,6-tetramethyl-1-piperidine-1-oxyl after 24 hrs by spin-trapping and LC/MS analysis. The format is physicochemical.
Data set [7] is described as follows: Induction of TEMPO adduct formation after 24 hrs in presence of 2,2,6,6-tetramethyl-1-piperidine-1-oxyl and ferrous sulfate by LC/MS analysis.
Data set [8] is described as follows: Induction of formation of Manganese-TPC adduct from reaction with manganese(2) tetraphenylporphyrin. The format is physicochemical.
A short description of data set [9]: Induction of formation of chlorin-type adduct from reaction with iron(2) tetraphenylporphyrin. It is filed as physicochemical.
Data set [10] can be described thus: Induction of formation of demetalated adduct from reaction with iron(2) tetraphenylporphyrin. It is filed as physicochemical.
Data set [11] can be described thus: Induction of oxyl radical formation from reaction with iron(2) gluconate after 12 hrs by LC/MS analysis. The format is physicochemical.

The source made the active and inactive calls. The calls are words filed in the database; no cut-off is given here.

Turning to `C[C@@H]1CC[C@H]2[C@@H](C)C(=O)O[C@@H]3O[C@@]4(C)CC[C@@H]1[C@]32OO4` [ARTEMISININ], the result in data set [1] was inactive. In [2], the Activity is 70%.
What is called IC50 is the concentration at which inhibition is half-maximal. As to `CN1CCN(C2CCN(C(=O)C[C@H]3CC[C@]4(CC3)OO[C@]3(O4)C4CC5CC(C4)CC3C5)CC2)CC1`, the Stability result in data set [3] is on record as “Unstable”. For the same compound, in [4], the result was Active. Moreover, the IC50 with Plasmodium falciparum stood at 0.5 nM.
Turning to `O=C(CC1CCC2(CC1)OOC1(OO2)C2CC3CC(C2)CC1C3)N1CCOCC1` (centres undefined), the outcome in data set [5] was Active. Also, in the data set on Plasmodium falciparum, the IC50 came to 5.2 nM.
`CC(C)(N)CNC(=O)C[C@H]1CC[C@]2(CC1)OO[C@]1(O2)C2CC3CC(C2)CC1C3` [OZ277]: the result in data set [6] was Active.
Consider `O=C(CC1CCC2(CC1)OOC1(OO2)C2CC3CC(C2)CC1C3)N1CCN(C2CCNCC2)CC1` (centres undefined), for which, in data set [3], the Stability result is recorded as “Unstable”. For the same compound, the outcome in data set [4] and in data set [5] was Active. For the same compound, the Activity in data set [2] worked out at 38%. For the same compound, in the data set on Plasmodium falciparum, the IC50 stood at 0.4 nM.
With `CC(CN1CCNCC1)C(=O)CC1CCC2(CC1)OOC1(OO2)C2CC3CC(C2)CC1C3` (centres undefined), the Activity entry in data set [6] is on record as “Active”; in data set [2] it was 53%; in [8], “Active”; in [9], “Active”; in [10], “Active”. The Stability entry in [3] is “Unstable”. Also, the outcome in data set [4], in data set [7] and in [5] was Active. In addition, the IC50 in the data set on Plasmodium falciparum stood at 1.4 nM.
Consider `CC(C)CN1CCN(C(=O)C[C@H]2CC[C@]3(CC2)OO[C@]2(O3)C3CC4CC(C3)CC2C4)CC1`, for which the Stability entry in data set [3] was “Unstable”. Besides, the outcome in data set [4] and in data set [5] was Active. Further, the IC50 in the data set on Plasmodium falciparum worked out at 2.1 nM.
On to `O=C(CC1CCC2(CC1)OOC1(OO2)C2CC3CC(C2)CC1C3)NC1CC1` (centres undefined), for which, in data set [7], the result was Active. The IC50 with Plasmodium falciparum is 2.3 nM.
For the compound `CCOC(=O)CC1CCC2(CC1)OOC1(OO2)C2CC3CC(C2)CC1C3` (centres undefined), the result in data set [7] was Active. Further, the IC50 in the data set on Plasmodium falciparum was 10 nM.
In the case of `O=C(CC1CCC2(CC1)OOC1(OO2)C2CC3CC(C2)CC1C3)NCc1ccc(F)cc1` (centres undefined), the result in data set [1] was Active. Further, in [11], the outcome was Active. In the data set with Plasmodium falciparum, the IC50 came to 3 nM.
